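Tested at 5 concentrations; 48 h exposure; 96-well plates; endpoints linearly interpolated, else capped at highest concentration. GI50 = concentration required for 50% inhibition of growth. The concentration for full growth arrest is given as TGI.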
Legend:
Test in all cases: inhibition of tumour cell growth, NCI panel, 48 h
K-562 leukemia = test system: K-562 leukemia
HS 578T breast = test system: HS 578T breast
SK-MEL-28 melanoma = test system: SK-MEL-28 melanoma
UACC-257 melanoma = test system: UACC-257 melanoma
UO-31 renal = test system: UO-31 renal
CCRF-CEM leukemia = test system: CCRF-CEM leukemia
SK-MEL-2 melanoma = test system: SK-MEL-2 melanoma
PC-3 prostate = test system: PC-3 prostate
RXF 393 renal = test system: RXF 393 renal
SR leukemia = test system: SR leukemia
MDA-MB-231 breast = test system: MDA-MB-231 breast
SNB-19 CNS = test system: SNB-19 CNS
HOP-62 NSCLC = test system: HOP-62 NSCLC
OVCAR-3 ovarian = test system: OVCAR-3 ovarian
DU-145 prostate = test system: DU-145 prostate
SF-295 CNS = test system: SF-295 CNS
NCI/ADR-RES ovarian = test system: NCI/ADR-RES ovarian
SN12C renal = test system: SN12C renal
HCC-2998 colon = test system: HCC-2998 colon
A498 renal = test system: A498 renal
SF-268 CNS = test system: SF-268 CNS
LOX IMVI melanoma = test system: LOX IMVI melanoma
SK-MEL-5 melanoma = test system: SK-MEL-5 melanoma
HOP-92 NSCLC = test system: HOP-92 NSCLC
OVCAR-4 ovarian = test system: OVCAR-4 ovarian
MALME-3M melanoma = test system: MALME-3M melanoma
OVCAR-5 ovarian = test system: OVCAR-5 ovarian
KM12 colon = test system: KM12 colon
HCT-116 colon = test system: HCT-116 colon
U251 CNS = test system: U251 CNS
EKVX NSCLC = test system: EKVX NSCLC
ACHN renal = test system: ACHN renal
IGROV1 ovarian = test system: IGROV1 ovarian
A549 NSCLC = test system: A549 NSCLC
UACC-62 melanoma = test system: UACC-62 melanoma
NCI-H226 lung = test system: NCI-H226 lung
NCI-H522 lung = test system: NCI-H522 lung
BT-549 breast = test system: BT-549 breast
HCT-15 colon = test system: HCT-15 colon
SK-OV-3 ovarian = test system: SK-OV-3 ovarian
SF-539 CNS = test system: SF-539 CNS
OVCAR-8 ovarian = test system: OVCAR-8 ovarian
NCI-H23 lung = test system: NCI-H23 lung
MCF7 breast = test system: MCF7 breast
SW-620 colon = test system: SW-620 colon
786-0 renal = test system: 786-0 renal
M14 melanoma = test system: M14 melanoma
T-47D breast = test system: T-47D breast
COLO 205 colon = test system: COLO 205 colon
SNB-75 CNS = test system: SNB-75 CNS
NCI-H460 lung = test system: NCI-H460 lung
HT29 colon = test system: HT29 colon
TK-10 renal = test system: TK-10 renal
MOLT-4 leukemia = test system: MOLT-4 leukemia
CAKI-1 renal = test system: CAKI-1 renal
RPMI-8226 leukemia = test system: RPMI-8226 leukemia
MDA-MB-435 = test system: MDA-MB-435
HL-60(TB) leukemia = test system: HL-60(TB) leukemia

O=c1oc2ccc(Br)cc2c(=O)n1-c1ccc(F)cc1F
GI50 (K-562 leukemia): 2400 nM | TGI (K-562 leukemia): > 100 µM | GI50 (HS 578T breast): 2110 nM | TGI (HS 578T breast): 8.01 µM | GI50 (SK-MEL-28 melanoma): 1040 nM | TGI (SK-MEL-28 melanoma): 5.8 µM | GI50 (UACC-257 melanoma): 1780 nM | TGI (UACC-257 melanoma): 6.67 µM | GI50 (UO-31 renal): 1280 nM | TGI (UO-31 renal): 5.93 µM | GI50 (CCRF-CEM leukemia): 3.91 µM | TGI (CCRF-CEM leukemia): > 100 µM | GI50 (SK-MEL-2 melanoma): 2120 nM | TGI (SK-MEL-2 melanoma): 6.13 µM | GI50 (PC-3 prostate): 2850 nM | TGI (PC-3 prostate): 12.7 µM | GI50 (RXF 393 renal): 2270 nM | TGI (RXF 393 renal): 6.34 µM | GI50 (SR leukemia): 2670 nM | TGI (SR leukemia): > 100 µM | GI50 (MDA-MB-231 breast): 2110 nM | TGI (MDA-MB-231 breast): 6.96 µM | GI50 (SNB-19 CNS): 2300 nM | TGI (SNB-19 CNS): > 100 µM | GI50 (HOP-62 NSCLC): 2450 nM | TGI (HOP-62 NSCLC): 8.3 µM | GI50 (OVCAR-3 ovarian): 2410 nM | TGI (OVCAR-3 ovarian): 11.4 µM | GI50 (DU-145 prostate): 3.82 µM | TGI (DU-145 prostate): 27.7 µM | GI50 (SF-295 CNS): 1880 nM | TGI (SF-295 CNS): 3.71 µM | GI50 (NCI/ADR-RES ovarian): 2900 nM | TGI (NCI/ADR-RES ovarian): 30.5 µM | GI50 (SN12C renal): 2000 nM | TGI (SN12C renal): 8.61 µM | GI50 (HCC-2998 colon): 3.54 µM | TGI (HCC-2998 colon): 18.4 µM | GI50 (A498 renal): 1160 nM | TGI (A498 renal): 3.02 µM | GI50 (SF-268 CNS): 2620 nM | TGI (SF-268 CNS): 21.8 µM | GI50 (LOX IMVI melanoma): 2790 nM | TGI (LOX IMVI melanoma): 12.4 µM | GI50 (SK-MEL-5 melanoma): 1380 nM | TGI (SK-MEL-5 melanoma): 2820 nM | GI50 (HOP-92 NSCLC): 425 nM | TGI (HOP-92 NSCLC): 4.74 µM | GI50 (OVCAR-4 ovarian): 1650 nM | TGI (OVCAR-4 ovarian): 8.45 µM | GI50 (MALME-3M melanoma): 1590 nM | TGI (MALME-3M melanoma): 5.87 µM | GI50 (OVCAR-5 ovarian): 3.79 µM | TGI (OVCAR-5 ovarian): > 100 µM | GI50 (KM12 colon): 2750 nM | TGI (KM12 colon): 8.49 µM | GI50 (HCT-116 colon): 2480 nM | TGI (HCT-116 colon): 8.37 µM | GI50 (U251 CNS): 2510 nM | TGI (U251 CNS): 31.5 µM | GI50 (EKVX NSCLC): 2030 nM | TGI (EKVX NSCLC): 9.32 µM | GI50 (ACHN renal): 2440 nM | TGI (ACHN renal): 7.99 µM | GI50 (IGROV1 ovarian): 1940 nM | TGI (IGROV1 ovarian): 24.8 µM | GI50 (A549 NSCLC): 3.17 µM | TGI (A549 NSCLC): > 100 µM | GI50 (UACC-62 melanoma): 1010 nM | TGI (UACC-62 melanoma): 4.51 µM | GI50 (NCI-H226 lung): 2320 nM | TGI (NCI-H226 lung): 13.8 µM | GI50 (NCI-H522 lung): 2600 nM | TGI (NCI-H522 lung): 14.9 µM | GI50 (BT-549 breast): 1790 nM | TGI (BT-549 breast): 5.5 µM | GI50 (HCT-15 colon): 3.04 µM | TGI (HCT-15 colon): 12.8 µM | GI50 (SK-OV-3 ovarian): 398 nM | TGI (SK-OV-3 ovarian): 3.38 µM | GI50 (SF-539 CNS): 2170 nM | TGI (SF-539 CNS): 9.21 µM | GI50 (OVCAR-8 ovarian): 2810 nM | TGI (OVCAR-8 ovarian): 24.2 µM | GI50 (NCI-H23 lung): 2550 nM | TGI (NCI-H23 lung): 10.1 µM | GI50 (MCF7 breast): 2570 nM | TGI (MCF7 breast): > 100 µM | GI50 (SW-620 colon): 2960 nM | TGI (SW-620 colon): 16.7 µM | GI50 (786-0 renal): 3.23 µM | TGI (786-0 renal): 11.6 µM | GI50 (M14 melanoma): 1590 nM | TGI (M14 melanoma): 7.55 µM | GI50 (T-47D breast): 1770 nM | TGI (T-47D breast): 6.94 µM | GI50 (COLO 205 colon): 3.92 µM | TGI (COLO 205 colon): 16.4 µM | GI50 (SNB-75 CNS): 1020 nM | TGI (SNB-75 CNS): 3.98 µM | GI50 (NCI-H460 lung): 2790 nM | TGI (NCI-H460 lung): 25.6 µM | GI50 (HT29 colon): 3.45 µM | TGI (HT29 colon): 27.8 µM | GI50 (TK-10 renal): 4.53 µM | TGI (TK-10 renal): 19.2 µM | GI50 (MOLT-4 leukemia): 3.12 µM | TGI (MOLT-4 leukemia): > 100 µM | GI50 (CAKI-1 renal): 1720 nM | TGI (CAKI-1 renal): 6.1 µM | GI50 (RPMI-8226 leukemia): 1660 nM | TGI (RPMI-8226 leukemia): 7.07 µM | GI50 (MDA-MB-435): 2850 nM | TGI (MDA-MB-435): 10.4 µM

CCC(=O)Nc1ccc(N=NN(C)C)cc1
TGI (K-562 leukemia): > 100 µM | TGI (HS 578T breast): > 100 µM | TGI (SK-MEL-28 melanoma): > 100 µM | TGI (UACC-257 melanoma): > 100 µM | TGI (UO-31 renal): > 100 µM | TGI (SK-MEL-2 melanoma): > 100 µM | TGI (PC-3 prostate): > 100 µM | TGI (RXF 393 renal): > 100 µM | TGI (MDA-MB-231 breast): > 100 µM | TGI (SNB-19 CNS): > 100 µM | TGI (HOP-62 NSCLC): > 100 µM | TGI (DU-145 prostate): > 100 µM | TGI (NCI/ADR-RES ovarian): > 100 µM | TGI (SN12C renal): > 100 µM | TGI (HCC-2998 colon): 6.64 µM | TGI (A498 renal): > 100 µM | TGI (SF-268 CNS): > 100 µM | TGI (LOX IMVI melanoma): > 100 µM | TGI (SK-MEL-5 melanoma): > 100000 nM | TGI (HOP-92 NSCLC): 90.2 µM | TGI (OVCAR-4 ovarian): > 100 µM | TGI (MALME-3M melanoma): > 100 µM | TGI (OVCAR-5 ovarian): > 100 µM | TGI (HL-60(TB) leukemia): > 100 µM | TGI (HCT-116 colon): > 100 µM | TGI (U251 CNS): > 100 µM | TGI (EKVX NSCLC): > 100 µM | TGI (ACHN renal): > 100 µM | TGI (A549 NSCLC): > 100 µM | TGI (UACC-62 melanoma): > 100 µM | TGI (NCI-H226 lung): > 100 µM | TGI (NCI-H522 lung): > 100 µM | TGI (BT-549 breast): > 100 µM | TGI (HCT-15 colon): > 100 µM | TGI (SK-OV-3 ovarian): > 100 µM | TGI (SF-539 CNS): > 100 µM | TGI (OVCAR-8 ovarian): > 100 µM | TGI (NCI-H23 lung): > 100 µM | TGI (MCF7 breast): > 100 µM | TGI (SW-620 colon): > 100 µM | TGI (786-0 renal): > 100 µM | TGI (M14 melanoma): > 100 µM | TGI (T-47D breast): 30.4 µM | TGI (COLO 205 colon): > 100 µM | TGI (SNB-75 CNS): > 100 µM | TGI (NCI-H460 lung): > 100 µM | TGI (HT29 colon): > 100 µM | TGI (MOLT-4 leukemia): 43.4 µM | TGI (MDA-MB-435): > 100 µM
